Laboratory results reported in paper PMC7059125 (Bioorganic & medicinal chemistry letters, 2018).

Biological target: mushroom tyrosinase (Agaricus bisporus, UniProt C7FF04)
Experiment: Tyrosinase inhibitory assay
Assay type: biochemical
[1] = percent inhibition at 500 μM, versus carvacrol (1)

Sequence of mushroom tyrosinase (C7FF04 1-392): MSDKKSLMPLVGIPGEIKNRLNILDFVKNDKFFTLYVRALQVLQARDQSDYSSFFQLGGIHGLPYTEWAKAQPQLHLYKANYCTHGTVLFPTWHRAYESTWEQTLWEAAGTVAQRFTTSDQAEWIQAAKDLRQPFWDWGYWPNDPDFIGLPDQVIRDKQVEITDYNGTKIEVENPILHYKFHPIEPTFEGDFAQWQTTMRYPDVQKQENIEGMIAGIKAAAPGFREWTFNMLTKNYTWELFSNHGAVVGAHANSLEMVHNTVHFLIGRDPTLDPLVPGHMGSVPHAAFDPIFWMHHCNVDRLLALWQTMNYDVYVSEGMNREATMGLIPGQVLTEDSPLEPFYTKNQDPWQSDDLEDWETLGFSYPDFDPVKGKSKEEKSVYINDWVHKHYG

CCOc1cc(C(C)C)ccc1C [Compound 3, ethyl carvacrol]
fold increase in activity relative to carvacrol [1]: 1.6 fold

CCOc1cc(C(C)C)c(C(=O)CCC(=O)O)cc1C [Compound 5]
fold decrease in activity relative to carvacrol [1]: 2.1 fold

CCCCOC(=O)CCC(=O)c1cc(C(C)C)c(OCC)cc1C [Compound 18]
inhibition at 500 µM: 100 ± 3.9%
